According to patent US20070167462A1, “Fungicidal mixtures” (priority 2004, published 2007):

Test system: Corticium sasakii
Test: Activity against sheath blight on rice caused by Corticium sasakii (protective spray, rice plants cultivar Tai-Nong 67)
Assay type: in vivo
Settings: untreated control 90% infection
Description: The active compounds, separately or jointly, were prepared as a stock solution comprising 0.25% by weight of active compound in acetone or DMSO. 1% by weight of the emulsifier Uniperol® EL (wetting agent having emulsifying and dispersing action based on ethoxylated alkylphenols) was added to this solution, and the mixture was diluted with water accordingly to the desired concentration.
Use example—Activity against sheath blight on rice caused by Corticium sasakii
Pots of rice plants of the cultivar “Tai-Nong 67” were sprayed to runoff point with an aqueous suspension having the concentration of active compound stated below. The next day, oat grains infected with Corticium sasakii were planted in the pots (in each case 5 grains per pot). The plants were then placed in a chamber at 26° C. and maximum atmospheric humidity. After […], the sheath blight on the untreated but infected control plants had developed to such an extent that the infection could be determined visually in %.
Evaluation is carried out by determining the infected leaf areas in percent. These percentages were converted into efficacies.
The efficacy (E) is calculated as follows using Abbot's formula: E=(1−αβ)·100 • α corresponds to the fungal infection of the treated plants in % and • β corresponds to the fungal infection of the untreated (control) plants in %
An efficacy of 0 means that the infection level of the treated plants corresponds to that of the untreated control plants; an efficacy of 100 means that the treated plants are not infected.
The expected efficacies of the mixtures of active compounds are determined using Colby's formula [R. S. Colby, Weeds, 15, 20-22 (1967)] and are compared with the observed efficacies.
Colby's formula: E=x+y−x·y/100 • E expected efficacy, expressed in % of the untreated control, when using the mixture of the active compounds A and B at the concentrations a and b • x efficacy, expressed in % of the untreated control, when using the active compound A at the concentration a
y efficacy, expressed in % of the untreated control, when using the active compound B at the concentration b

[1] = 4 ppm active compound in the spray liquor
[2] = 16 ppm active compound in the spray liquor

Structure (SMILES)	Efficacy in % of the untreated control [1]	Efficacy in % of the untreated control [2]
CC(C)Oc1cccc(NC(=O)c2ccccc2C(F)(F)F)c1 [II (flutolanil), N-(3-isopropoxyphenyl)-2-trifluoromethylbenzamide]	0%	31%
CC1CCN(c2c(-c3c(F)cc(F)cc3F)c(Cl)nc3ncnn23)CC1 [compound I, 5-chloro-7-(4-methylpiperidin-1-yl)-6-(2,4,6-trifluorophenyl)-[1,2,4]tri-azolo[1,5-a]pyrimidine]	31%	65%
